The text below walks through data of BindingDB's records for patent US20240368194 (Shanghai Leadingtac Pharmaceutical, 2024).

For the experiment, the target named is T1, Interleukin-1 receptor-associated kinase 4 (Homo sapiens, UniProt Q9NWZ3).
T1 sequence (Q9NWZ3 whole entry): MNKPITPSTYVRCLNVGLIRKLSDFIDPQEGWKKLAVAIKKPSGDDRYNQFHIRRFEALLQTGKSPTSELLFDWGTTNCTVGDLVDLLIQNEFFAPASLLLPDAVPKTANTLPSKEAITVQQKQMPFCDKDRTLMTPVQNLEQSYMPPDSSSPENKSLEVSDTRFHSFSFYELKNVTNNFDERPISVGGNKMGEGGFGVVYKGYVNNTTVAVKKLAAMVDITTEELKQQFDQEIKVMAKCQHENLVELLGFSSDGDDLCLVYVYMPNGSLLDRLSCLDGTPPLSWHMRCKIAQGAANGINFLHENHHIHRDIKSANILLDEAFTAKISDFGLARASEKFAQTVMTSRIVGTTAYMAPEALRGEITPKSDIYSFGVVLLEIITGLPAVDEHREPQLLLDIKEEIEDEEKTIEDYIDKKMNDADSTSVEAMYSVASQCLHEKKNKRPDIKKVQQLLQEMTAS
The experiment can be described thus: 1RAK4 Kinase Activity Assay. As to the method:
Then 2.5 nM 1RAK4 kinase (Carna), 1 μM biotinylated polypeptide substrate (Cisbio) and 7 μM adenosine triphosphate (Sigma-Aldrich) were sequentially added, and the mixtures were incubated at 37° C. for 120 min. Subsequently, an anti-phosphoserine/threonine antibody (Cisbio) conjugated with a europium element compound and conjugated modified XL665 streptavidin (Cisbio) were added to the reaction systems to stop the reactions. After 1 h of incubation at room temperature, the fluorescence intensity of each well was measured at the excitation wavelength of 337 nm and the emission wavelengths of 620 nm and 665 nm with a microplate reader EnVision (PerkinElmer) in the HTRF mode, and Ratio values were calculated using the formula Ratio=(665 nm/620 nm)×[…]. The inhibition rate of the compound at each concentration was calculated by comparing the fluorescence intensity ratio with that of the control group.
In turn, `CN1CCN(c2ccn3ncc(C(=O)Nc4cn([C@H]5CC[C@H](CN(C)CCC6CCN(C(=O)c7ccc(F)c(N8CCC(=O)NC8=O)c7)CC6)CC5)nc4C(F)F)c3n2)CC1` [US20240368194, Example 41] yielded an IC50 of 25.5 nM. For `CN(CC[C@H]1CC[C@H](n2cc(NC(=O)c3cnn4ccc(N5C[C@H]6C[C@@H]5CO6)nc34)c(C(F)F)n2)CC1)CC1CCN(C(=O)c2ccc(Cl)c(N3CCC(=O)NC3=O)c2)CC1` [US20240368194, Example 46], the IC50 stood at 278 nM. In the case of `COc1ccc(C(=O)N2CCC3(CCC(N(C)C[C@H]4CC[C@H](n5cc(NC(=O)c6cnn7ccc(N8CCOCC8)nc67)c(C(F)F)n5)CC4)CC3)CC2)cc1N1CCC(=O)NC1=O` [US20240368194, Example 59] it was 8.71 nM. In turn, `O=C1CCN(c2cc(C(=O)N3CCC4(CCN(C[C@H]5CC[C@H](n6cc(NC(=O)c7cnn8ccc(N9C[C@H]%10C[C@@H]9CO%10)nc78)c(Cl)n6)CC5)CC4)CC3)ccc2Cl)C(=O)N1` [US20240368194, Example 5] returned an IC50 of 360 nM.

With `CN(CCC1CCN(C(=O)c2ccc(Cl)c(N3CCC(=O)NC3=O)c2)CC1)C[C@H]1CC[C@H](n2cc(NC(=O)c3cnn4ccc(N5C[C@H]6C[C@@H]5CO6)nc34)c(C(F)F)n2)CC1` [US20240368194, Example 11], half-maximal inhibition (IC50) was put at 18.5 nM. `O=C1CCN(c2cc(C#CCOC3CCN(C[C@H]4CC[C@H](n5cc(NC(=O)c6cnn7ccc(N8CCOCC8)nc67)c(C(F)F)n5)CC4)CC3)ccc2Cl)C(=O)N1` [US20240368194, Example 38] registered an IC50 of 20 nM.

Molecule `CN(CCC1CCN(C(=O)c2ccc(Cl)c(N3CCC(=O)NC3=O)c2)CC1)C[C@]1(O)CC[C@@H](n2cc(NC(=O)c3cnn4ccc(N5C[C@H]6C[C@@H]5CO6)nc34)c(C(F)F)n2)CC1` [US20240368194, Example 65] displayed an IC50 of 52.1 nM. Take `O=C1CCC(c2ccc(C(=O)N3CCC4(CCC(CN5CCC(n6cc(NC(=O)c7cnn8ccc(N9CCOCC9)nc78)c(C(F)F)n6)CC5)CC4)CC3)cc2)C(=O)N1` (stereo not given) [US20240368194, Example 26]: the IC50 was found to be 14.3 nM.

On to `Cc1nn([C@H]2CC[C@H](CN3CCC4(CC3)CCN(C(=O)c3ccc(Cl)c(N5CCC(=O)NC5=O)c3)CC4)CC2)cc1NC(=O)c1cnn2ccc(N3C[C@H]4C[C@@H]3CO4)nc12` [US20240368194, Example 7], for which the half-maximal inhibitory concentration (IC50) worked out at 313 nM.

The molecule `CN(CCC1CCN(C(=O)c2ccc(OC(F)(F)F)c(N3CCC(=O)NC3=O)c2)CC1)C[C@H]1CC[C@H](n2cc(NC(=O)c3cnn4ccc(N5C[C@H]6C[C@@H]5CO6)nc34)c(C(F)F)n2)CC1` [US20240368194, Example 33] showed an IC50 of 23.9 nM.
